From the NIST ThermoML archive (doi:10.1021/je0497247)
Numbers after ± are expanded uncertainties.

Columns and labels:
[1] = wn = mass fraction of the nth substance listed; conditions: 100 kPa, Liquid; for mass density: Pycnometric method; for viscosity: Capillary tube (Ostwald / Ubbelohde) method
[2] = 100 kPa, Liquid; for viscosity: Capillary tube (Ostwald / Ubbelohde) method; for mass density: Pycnometric method

O=C(O)c1ccccc1 [benzoic acid] + O
[1]
Conditions | mass density [kg/m3] | thermal conductivity [W/m/K] | viscosity [mPa·s]
373 K, w1 = 0.1 | – | 0.659 ± 0.023 | –
374.6 K, w1 = 0.05 | – | 0.671 ± 0.023 | –
379.1 K, w1 = 0.1 | 974.1 ± 0.9 | – | –
379.6 K, w1 = 0.05 | 963.7 ± 0.8 | – | –
380.6 K, w1 = 0.1 | – | – | 0.319 ± 0.004
381.1 K, w1 = 0.05 | – | – | 0.288 ± 0.003
391 K, w1 = 0.2 | – | 0.649 ± 0.022 | –
392.9 K, w1 = 0.1 | 961 ± 0.9 | – | –
393.6 K, w1 = 0.05 | – | 0.675 ± 0.023 | –
393.6 K, w1 = 0.4 | – | 0.575 ± 0.02 | –
393.9 K, w1 = 0.8 | – | 0.199 ± 0.008 | –
394.2 K, w1 = 0.1 | – | 0.662 ± 0.023 | –
394.6 K, w1 = 0.05 | 951.9 ± 0.8 | – | –
395.9 K, w1 = 0.1 | – | – | 0.272 ± 0.003
397.6 K, w1 = 0.05 | – | – | 0.256 ± 0.003
400.3 K, w1 = 0.2 | 963.5 ± 1 | – | –
400.3 K, w1 = 1 | – | – | 1.372 ± 0.037
400.8 K, w1 = 0.4 | 988.8 ± 1.4 | – | –
400.9 K, w1 = 0.8 | 1050.1 ± 2.4 | – | –
401.3 K, w1 = 1 | 1089.5 ± 3 | – | –
401.6 K, w1 = 0.6 | 1013.8 ± 1.9 | – | –
401.8 K, w1 = 0.2 | – | – | 0.329 ± 0.004
402.3 K, w1 = 0.4 | – | – | 0.501 ± 0.008
402.4 K, w1 = 0.8 | – | – | 0.931 ± 0.022
403.1 K, w1 = 0.6 | – | – | 0.708 ± 0.013
406.8 K, w1 = 1 | – | 0.139 ± 0.006 | –
409.2 K, w1 = 0.2 | – | 0.65 ± 0.022 | –
409.2 K, w1 = 0.4 | – | 0.571 ± 0.02 | –
409.3 K, w1 = 1 | – | – | 1.238 ± 0.032
410.3 K, w1 = 1 | 1080.2 ± 3.2 | – | –
410.9 K, w1 = 0.1 | – | 0.67 ± 0.023 | –
412.1 K, w1 = 0.1 | 945.4 ± 0.9 | – | –
413.2 K, w1 = 0.8 | – | 0.197 ± 0.008 | –
413.3 K, w1 = 0.05 | – | 0.676 ± 0.023 | –
413.4 K, w1 = 0.05 | 935.5 ± 0.9 | – | –
413.8 K, w1 = 0.2 | 950.8 ± 1.1 | – | –
414.8 K, w1 = 0.4 | 975.1 ± 1.4 | – | –
414.8 K, w1 = 0.8 | 1035 ± 2.4 | – | –
415.1 K, w1 = 0.1 | – | – | 0.236 ± 0.003
415.9 K, w1 = 0.6 | 999.2 ± 1.8 | – | –
416.4 K, w1 = 0.05 | – | – | 0.219 ± 0.003
416.8 K, w1 = 0.2 | – | – | 0.274 ± 0.004
417.8 K, w1 = 0.4 | – | – | 0.383 ± 0.006
418 K, w1 = 0.2 | – | 0.651 ± 0.022 | –
418.3 K, w1 = 1 | – | – | 1.117 ± 0.03
418.8 K, w1 = 0.8 | – | – | 0.69 ± 0.016
418.9 K, w1 = 0.6 | – | – | 0.547 ± 0.011
419.3 K, w1 = 1 | 1069.8 ± 3 | – | –
420.1 K, w1 = 0.4 | – | 0.549 ± 0.019 | –
424.4 K, w1 = 1 | – | 0.137 ± 0.006 | –
427.2 K, w1 = 1 | – | – | 1.026 ± 0.028
428.2 K, w1 = 1 | 1060.2 ± 3 | – | –
428.4 K, w1 = 0.1 | 929.6 ± 1 | – | –
430.1 K, w1 = 0.4 | – | 0.568 ± 0.02 | –
431.3 K, w1 = 0.8 | 1018.8 ± 2.4 | – | –
431.4 K, w1 = 0.1 | – | – | 0.211 ± 0.003
431.9 K, w1 = 0.2 | 933.7 ± 1.1 | – | –
432.1 K, w1 = 1 | 1055 ± 3 | – | 0.953 ± 0.026
432.6 K, w1 = 0.4 | 955 ± 1.5 | – | –
433.1 K, w1 = 0.05 | 915.2 ± 1 | – | –
433.1 K, w1 = 0.8 | – | 0.192 ± 0.008 | –
433.9 K, w1 = 0.6 | 981.1 ± 1.9 | – | –
434.3 K, w1 = 0.8 | – | – | 0.542 ± 0.013
434.9 K, w1 = 0.2 | – | – | 0.234 ± 0.003
435.6 K, w1 = 0.4 | – | – | 0.309 ± 0.005
436.1 K, w1 = 0.05 | – | – | 0.194 ± 0.003
436.9 K, w1 = 0.6 | – | – | 0.399 ± 0.008
444.9 K, w1 = 0.1 | 912.6 ± 1.1 | – | –
444.9 K, w1 = 1 | – | 0.134 ± 0.006 | –
447.1 K, w1 = 1 | 1036 ± 3 | – | 0.802 ± 0.022
447.9 K, w1 = 0.1 | – | – | 0.194 ± 0.003
449.4 K, w1 = 0.8 | 1000.5 ± 2.3 | – | –
450.8 K, w1 = 0.05 | 896.3 ± 1.1 | – | –
451 K, w1 = 0.8 | – | 0.188 ± 0.008 | –
452.1 K, w1 = 0.4 | 932 ± 1.4 | – | –
452.4 K, w1 = 0.2 | 912 ± 1.2 | – | –
452.4 K, w1 = 0.8 | – | – | 0.438 ± 0.01
453.4 K, w1 = 0.6 | 959.5 ± 1.9 | – | –
453.8 K, w1 = 0.05 | – | – | 0.177 ± 0.002
455.1 K, w1 = 0.4 | – | – | 0.263 ± 0.004
455.4 K, w1 = 0.2 | – | – | 0.206 ± 0.003
456.4 K, w1 = 0.6 | – | – | 0.334 ± 0.006
465.1 K, w1 = 1 | – | 0.132 ± 0.006 | –

O=C(O)c1ccccc1 [benzoic acid]
[2]
Conditions | mass density [kg/m3] | thermal conductivity [W/m/K] | viscosity [mPa·s]
400.3 K | – | – | 1.372 ± 0.037
401.3 K | 1089.5 ± 3 | – | –
406.8 K | – | 0.139 ± 0.006 | –
409.3 K | – | – | 1.238 ± 0.032
410.3 K | 1080.2 ± 3.2 | – | –
418.3 K | – | – | 1.117 ± 0.03
419.3 K | 1069.8 ± 3 | – | –
424.4 K | – | 0.137 ± 0.006 | –
427.2 K | – | – | 1.026 ± 0.028
428.2 K | 1060.2 ± 3 | – | –
432.1 K | 1055 ± 3 | – | 0.953 ± 0.026
444.9 K | – | 0.134 ± 0.006 | –
447.1 K | 1036 ± 3 | – | 0.802 ± 0.022
465.1 K | – | 0.132 ± 0.006 | –
